Results on 4 compounds are retold here after BindingDB's records for doi:10.1016/j.bmcl.2019.06.040 (Shenyang Pharmaceutical University, 2019).

Structures are written as SMILES.

In the data set the target is T1, Cytochrome P450 11B2, mitochondrial (Homo sapiens, UniProt P19099).
T1 sequence (P19099 whole entry): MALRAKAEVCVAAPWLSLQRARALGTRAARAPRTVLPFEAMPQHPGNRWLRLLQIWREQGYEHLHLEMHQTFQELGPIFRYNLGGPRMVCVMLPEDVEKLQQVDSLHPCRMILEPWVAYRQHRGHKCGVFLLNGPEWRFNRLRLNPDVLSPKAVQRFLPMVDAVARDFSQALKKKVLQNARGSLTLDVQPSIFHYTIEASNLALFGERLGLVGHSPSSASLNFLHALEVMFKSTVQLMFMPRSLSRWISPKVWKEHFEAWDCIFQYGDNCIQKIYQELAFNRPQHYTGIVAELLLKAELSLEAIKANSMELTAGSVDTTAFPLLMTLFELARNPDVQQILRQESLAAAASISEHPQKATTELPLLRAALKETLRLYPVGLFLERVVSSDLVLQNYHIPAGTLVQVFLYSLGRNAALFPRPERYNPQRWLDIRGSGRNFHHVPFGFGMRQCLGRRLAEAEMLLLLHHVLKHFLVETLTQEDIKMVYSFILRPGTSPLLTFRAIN
Nature of the data set: Inhibition of CYP11B2 (unknown origin).

Compound `Cc1nnc2n1-c1cc(F)c(-c3cccnc3)cc1CC2` returned an IC50 of 131 nM. The value for `Fc1cc(-c2cccnc2)cc2c1-n1cnnc1CC2` was 172 nM; that for `Fc1cc2c(cc1-c1cccnc1)CCc1nncn1-2` was 244 nM. The value for `Cc1nnc2n1-c1c(F)cc(-c3cccnc3)cc1CC2` was 63 nM.

Broadly, the IC50 is the concentration needed to halve the response being measured. A high value points to lower potency.
